Data on 31 molecules can be found in US12208088B2 (Genentech, Inc., priority 2018, dated 2025).

The target of this assay is HPK1 (Homo sapiens (Human), UniProt Q92918). The experiment in a line: HPK1 Lantha binding assay ("Lanth"). To be noted: binding assays; Morrison Ki fit. The method in brief:
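TR-FRET binding competition using 2 nM HPK1, 2 nM Eu-anti-GST antibody and 15 nM Tracer222 at 23 °C. Compound was incubated 1 h with enzyme and antibody, then 1 h after tracer addition, with an 11-point 5-fold dilution series. Ki obtained from a Morrison fit that corrects for tracer concentration and Kd.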

Sequence of HPK1 (Q92918 1-346 limits assumed): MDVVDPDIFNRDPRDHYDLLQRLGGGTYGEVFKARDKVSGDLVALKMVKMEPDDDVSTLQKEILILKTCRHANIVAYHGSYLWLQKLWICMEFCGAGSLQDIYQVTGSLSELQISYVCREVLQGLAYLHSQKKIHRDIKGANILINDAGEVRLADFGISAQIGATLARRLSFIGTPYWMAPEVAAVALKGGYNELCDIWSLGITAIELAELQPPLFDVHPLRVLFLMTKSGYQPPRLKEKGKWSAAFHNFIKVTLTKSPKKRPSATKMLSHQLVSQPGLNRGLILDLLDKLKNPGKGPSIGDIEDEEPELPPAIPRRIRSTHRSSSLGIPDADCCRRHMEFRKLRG

As for `CN(C)C(=O)c1c(N)ccc(-c2cnc3c(c2Cl)C2(CCC(N(C)CC(N)=O)C2)CN3)c1F` (stereo not shown) [Compound 75, 6-Amino-3-(3-((2-amino-2-oxoethyl)(methyl)amino)-4′-chloro-1′,2′-dihydrospiro[cyclopentane-1,3′-pyrrolo[2,3-b]pyridin]-5′-yl)-2-fluoro-N,N-dimethylbenzamide], the affinity, expressed as Ki, was 251 nM.
In the case of `CN(C)C(=O)c1c(N)ccc(-c2cnc3c(c2Cl)C2(CCC(NCC(N)=O)C2)CN3)c1F` (stereo not shown) [Compound 76, 6-Amino-3-(3-((2-amino-2-oxoethyl)amino)-4′-chloro-1′,2′-dihydrospiro[cyclopentane-1,3′-pyrrolo[2,3-b]pyridin]-5′-yl)-2-fluoro-N,N-dimethylbenzamide] it was 490 nM.
`CN(C)C(=O)c1c(N)ccc(-c2cnc3c(c2)[C@]2(CN3)C[C@H](O)C2)c1F` [Compound 77a, 6-Amino-2-fluoro-3-((1r,3r)-3-hydroxy-1′,2′-dihydrospiro[cyclobutane-1,3′-pyrrolo[2,3-b]pyridin]-5′-yl)-N,N-dimethylbenzamide]: the inhibitory constant (Ki) – broadly, a measure of affinity in units of concentration, obtained from inhibition or displacement – was determined as 160 nM.
As for `CN(C)C(=O)c1c(N)ccc(-c2cnc3c(c2)[C@]2(CN3)C[C@@H](O)C2)c1F` [Compound 77b, 6-Amino-2-fluoro-3-((1s,3s)-3-hydroxy-1′,2′-dihydrospiro[cyclobutane-1,3′-pyrrolo[2,3-b]pyridin]-5′-yl)-N,N-dimethylbenzamide], the figure is 217 nM.
As for `CN(C)C(=O)c1c(N)ccc(-c2cnc3c(c2)[C@]2(CN3)C[C@](C)(O)C2)c1F` [Compound 78a, 6-Amino-2-fluoro-3-((1r,3r)-3-hydroxy-3-methyl-1′,2′-dihydrospiro[cyclobutane-1,3′-pyrrolo[2,3-b]pyridin]-5′-yl)-N,N-dimethylbenzamide], the figure is 927 nM.
On to `CN(C)C(=O)c1c(N)ccc(-c2cnc3c(c2)[C@]2(CN3)C[C@@](C)(O)C2)c1F` [Compound 78b, 6-Amino-2-fluoro-3-((1s,3s)-3-hydroxy-3-methyl-1′,2′-dihydrospiro[cyclobutane-1,3′-pyrrolo[2,3-b]pyridin]-5′-yl)-N,N-dimethylbenzamide], for which the Ki was 165 nM.
As for `CN(C)C(=O)c1c(N)ccc(-c2cnc3c(c2)C2(CNC(=O)C2)CN3)c1F` (stereo not shown) [Compound 79, 6-Amino-2-fluoro-N,N-dimethyl-3-(5-oxo-1′,2′-dihydrospiro[pyrrolidine-3,3′-pyrrolo[2,3-b]pyridin]-5′-yl)benzamide], the figure is 659 nM; as for `CO[C@H]1C[C@]2(CNc3ncc(-c4ccc(N)c(C(=O)N(C)C)c4F)c(Cl)c32)C1` [Compound 80a, 6-Amino-3-((1r,3r)-4′-chloro-3-methoxy-1′,2′-dihydrospiro[cyclobutane-1,3′-pyrrolo[2,3-b]pyridin]-5′-yl)-2-fluoro-N,N-dimethylbenzamide], 97.6 nM.
`CO[C@H]1C[C@@]2(CNc3ncc(-c4ccc(N)c(C(=O)N(C)C)c4F)c(Cl)c32)C1` [Compound 80b, 6-Amino-3-((1s,3s)-4′-chloro-3-methoxy-1′,2′-dihydrospiro[cyclobutane-1,3′-pyrrolo[2,3-b]pyridin]-5′-yl)-2-fluoro-N,N-dimethylbenzamide] gave a Ki of 129 nM.
As for `CC(=O)NC1CCC2(CNc3ncc(-c4ccc(N)c(C(=O)N(C)C)c4F)c(Cl)c32)C1` (stereo not shown) [Compound 83, 3-(3-Acetamido-4′-chloro-1′,2′-dihydrospiro[cyclopentane-1,3′-pyrrolo[2,3-b]pyridin]-5′-yl)-6-amino-2-fluoro-N,N-dimethylbenzamide], the figure is 208 nM; as for `CN(C)C(=O)c1c(N)ccc(-c2cnc3c(c2Cl)[C@]2(CC[C@H](n4cncn4)C2)CN3)c1F` [Compound 85a, 6-Amino-3-((1R,3S)-4′-chloro-3-(1H-1,2,4-triazol-1-yl)-1′,2′-dihydrospiro[cyclopentane-1,3′-pyrrolo[2,3-b]pyridin]-5′-yl)-2-fluoro-N,N-dimethylbenzamide], 48.1 nM.
As for `CN(C)C(=O)c1c(N)ccc(-c2cnc3c(c2Cl)[C@]2(CC[C@@H](n4cncn4)C2)CN3)c1F` [Compound 85c, 6-Amino-3-((1R,3R)-4′-chloro-3-(1H-1,2,4-triazol-1-yl)-1′,2′-dihydrospiro[cyclopentane-1,3′-pyrrolo[2,3-b]pyridin]-5′-yl)-2-fluoro-N,N-dimethylbenzamide], the figure is 149 nM.
`C[C@@H]1C[C@@]12CNc1ncc(-c3ccc(N)c(C(=O)N(C)C)c3F)cc12` [Compound 86c, 6-Amino-2-fluoro-N,N-dimethyl-3-((1R,2R)-2-methyl-1′,2′-dihydrospiro[cyclopropane-1,3′-pyrrolo[2,3-b]pyridin]-5′-yl)benzamide] returned a Ki of 3.25 nM.
In the case of `CN(C)C(=O)c1c(N)ccc(-c2cnc3c(c2)[C@]2(CN3)C[C@@](O)(C(F)(F)F)C2)c1F` [Compound 87a] it was 358 nM; in that of `CN(C)C(=O)c1c(N)ccc(-c2cnc3c(c2)[C@]2(CN3)C[C@@H](n3cncn3)C2)c1F` [Compound 88a], 126 nM; in that of `CN(C)C(=O)c1c(N)ccc(-c2cnc3c(c2Cl)[C@]2(CC[C@@H](n4nccn4)C2)CN3)c1F` [Compound 89c, 6-Amino-3-((1R,3R)-4′-chloro-3-(2H-1,2,3-triazol-2-yl)-1′,2′-dihydrospiro[cyclopentane-1,3′-pyrrolo[2,3-b]pyridin]-5′-yl)-2-fluoro-N,N-dimethylbenzamide], 23.1 nM.
Turning to `CN(C)C(=O)c1c(N)ccc(-c2cnc3c(c2Cl)[C@]2(CC[C@H](n4ccnn4)C2)CN3)c1F` [Compound 90a], the Ki amounted to 51.8 nM.
As for `CC(=O)N1CC2(CNc3ncc(-c4ccc(N)c(C(=O)N(C)C)c4F)cc32)C1` [Compound 93, 3-(1-Acetyl-1′,2′-dihydrospiro[azetidine-3,3′-pyrrolo[2,3-b]pyridin]-5′-yl)-6-amino-2-fluoro-N,N-dimethylbenzamide], the figure is 916 nM; as for `CN(C)C(=O)c1c(N)ccc(-c2cnc3c(c2)C2(CN3)CC(=CC#N)C2)c1F` (stereo not shown) [Compound 94a, (s,E)-6-Amino-3-(3-(cyanomethylene)-1′,2′-dihydrospiro[cyclobutane-1,3′-pyrrolo[2,3-b]pyridin]-5′-yl)-2-fluoro-N,N-dimethylbenzamide], 73.6 nM.
As for `CN(C)C(=O)c1c(N)ccc(-c2cnc3c(c2)[C@]2(CN3)C[C@@H](CC#N)C2)c1F` [Compound 95a, 6-Amino-3-((1r,3r)-3-(cyanomethyl)-1′,2′-dihydrospiro[cyclobutane-1,3′-pyrrolo[2,3-b]pyridin]-5′-yl)-2-fluoro-N,N-dimethylbenzamide], the figure is 120 nM; as for `CN(C)C(=O)c1c(N)ccc(-c2cnc3c(c2)[C@]2(CN3)C[C@@H](C#N)C2)c1F` [Compound 96a], 124 nM.
For the molecule `CN(C)C(=O)c1c(N)ccc(-c2cnc3c(c2)[C@]2(CN3)C[C@@H](C(N)=O)C2)c1F` [Compound 97a], the inhibition constant (Ki) amounted to 50.7 nM.
`CN(C)C(=O)c1c(N)ccc(-c2cnc3c(c2)C2(CN3)CC(=CC(N)=O)C2)c1F` (stereo not shown) [Compound 101, 6-Amino-3-(3-(2-amino-2-oxoethylidene)-1′,2′-dihydrospiro[cyclobutane-1,3′-pyrrolo[2,3-b]pyridin]-5′-yl)-2-fluoro-N,N-dimethylbenzamide]: the affinity corresponds to a Ki of 55.8 nM.
As for `CN(C)C(=O)c1c(N)ccc(-c2cnc3c(c2)[C@]2(CN3)C[C@H](CC(N)=O)C2)c1F` [Compound 102a, 6-Amino-3-((1r,3r)-3-(2-amino-2-oxoethyl)-1′,2′-dihydrospiro[cyclobutane-1,3′-pyrrolo[2,3-b]pyridin]-5′-yl)-2-fluoro-N,N-dimethylbenzamide], the figure is 67 nM.
In the case of `CN(C)C(=O)c1c(N)ccc(-c2cnc3c(c2Cl)C2(CCC(=CS(C)(=O)=O)C2)CN3)c1F` (stereo not shown) [Compound 103, 6-Amino-3-(4′-chloro-3-((methylsulfonyl)methylene)-1′,2′-dihydrospiro[cyclopentane-1,3′-pyrrolo[2,3-b]pyridin]-5′-yl)-2-fluoro-N,N-dimethylbenzamide] it was 24.1 nM.
As for `CN(C)C(=O)c1c(N)ccc(-c2cnc3c(c2Cl)C2(CCC(=CC#N)C2)CN3)c1F` (stereo not shown) [Compound 104, 6-Amino-3-(4′-chloro-3-(cyanomethylene)-1′,2′-dihydrospiro[cyclopentane-1,3′-pyrrolo[2,3-b]pyridin]-5′-yl)-2-fluoro-N,N-dimethylbenzamide], the figure is 13.1 nM; as for `CN(C)C(=O)c1c(N)ccc(-c2cnc3c(c2Cl)[C@]2(CC[C@](O)(CC#N)C2)CN3)c1F` [Compound 109a, 6-Amino-3-((1R,3R)-4′-chloro-3-(cyanomethyl)-3-hydroxy-1′,2′-dihydrospiro[cyclopentane-1,3′-pyrrolo[2,3-b]pyridin]-5′-yl)-2-fluoro-N,N-dimethylbenzamide], 25.3 nM.
Molecule `CN(C)C(=O)c1c(N)ccc(-c2cnc3c(c2Cl)C2(CCC(=CC(N)=O)C2)CN3)c1F` (stereo not shown) [Compound 110, 6-Amino-3-(3-(2-amino-2-oxoethylidene)-4′-chloro-1′,2′-dihydrospiro[cyclopentane-1,3′-pyrrolo[2,3-b]pyridin]-5′-yl)-2-fluoro-N,N-dimethylbenzamide] returned a Ki of 4.5 nM.
As for `CN(C)C(=O)c1c(N)ccc(-c2cnc3c(c2)[C@]2(CC[C@H](O)CC2)CN3)c1F` [Compound 111a, 6-Amino-2-fluoro-3-((1s,4s)-4-hydroxy-1′,2′-dihydrospiro[cyclohexane-1,3′-pyrrolo[2,3-b]pyridin]-5′-yl)-N,N-dimethylbenzamide], the figure is 48.3 nM; as for `CN(C)C(=O)c1c(N)ccc(-c2cnc3c(c2)[C@]2(CC[C@@H](O)CC2)CN3)c1F` [Compound 111b, 6-Amino-2-fluoro-3-((1r,4r)-4-hydroxy-1′,2′-dihydrospiro[cyclohexane-1,3′-pyrrolo[2,3-b]pyridin]-5′-yl)-N,N-dimethylbenzamide], 172 nM; as for `CN(C)C(=O)c1c(N)ccc(-c2cnc3c(c2Cl)C2(C=C(c4cccnc4)CC2)CN3)c1F` (stereo not shown) [Compound 112, 6-Amino-3-(4′-chloro-3-(pyridin-3-yl)-1′,2′-dihydrospiro[cyclopentane-1,3′-pyrrolo[2,3-b]pyridin]-2-en-5′-yl)-2-fluoro-N,N-dimethylbenzamide], 6.6 nM.
